Tested on: 556581-035-R-J1 tumor spheroid viability, % test/control
Test: Anticancer human tumor 556581-035-R-J1 patient-derived ovarian carcinoma cell line growth inhibition
Conditions: spheroids with HUVEC and MSC; for IC50: curve of first compound; for viability, T/C: stronger effect = lower value
Method in brief: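 Complex spheroids of malignant cells with endothelial cells and mesenchymal stem cells; agents alone or combined, from near clinical Cmax (or 10 microM if unknown) down in half-log steps, 0.25% DMSO final.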
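Note: spheroids exposed to compounds for 7 days before viability read.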

## Cc1sc2c(c1C)C(c1ccc(Cl)cc1)=NC(CC(=O)Nc1ccc(O)cc1)c1nnc(C)n1-2 (stereo not given) + COc1cc2c(cc1O)CCNC21CSC2c3c(OC(C)=O)c(C)c4c(c3C(COC1=O)N1C(O)C3Cc5cc(C)c(OC)c(O)c5C(C21)N3C)OCO4
Second compound 30 pM
  IC50: > 3000 nM
Second compound 94.9 pM
  IC50: > 3000 nM
Second compound 0.0003 µM
  IC50: 782 nM
Second compound 0.000949 µM
  IC50: < 9.49 nM
Second compound 0.003 µM
  IC50: < 9.49 nM
Second compound 30 pM, first compound 0.00949 µM
  viability, T/C: 107%
Second compound 30 pM, first compound 0.03 µM
  viability, T/C: 101%
Second compound 30 pM, first compound 0.0949 µM
  viability, T/C: 83.8%
Second compound 30 pM, first compound 0.3 µM
  viability, T/C: 80.1%
Second compound 30 pM, first compound 0.949 µM
  viability, T/C: 72.1%
Second compound 30 pM, first compound 3 µM
  viability, T/C: 63.5%
Second compound 94.9 pM, first compound 0.00949 µM
  viability, T/C: 112%
Second compound 94.9 pM, first compound 0.03 µM
  viability, T/C: 102%
Second compound 94.9 pM, first compound 0.0949 µM
  viability, T/C: 87.4%
Second compound 94.9 pM, first compound 0.3 µM
  viability, T/C: 75.8%
Second compound 94.9 pM, first compound 0.949 µM
  viability, T/C: 71%
Second compound 94.9 pM, first compound 3 µM
  viability, T/C: 54.9%
Second compound 0.0003 µM, first compound 0.00949 µM
  viability, T/C: 90.1%
Second compound 0.0003 µM, first compound 0.03 µM
  viability, T/C: 88.2%
Second compound 0.0003 µM, first compound 0.0949 µM
  viability, T/C: 80.3%
Second compound 0.0003 µM, first compound 0.3 µM
  viability, T/C: 64.4%
Second compound 0.0003 µM, first compound 0.949 µM
  viability, T/C: 47.4%
Second compound 0.0003 µM, first compound 3 µM
  viability, T/C: 35.4%
Second compound 0.000949 µM, first compound 0.00949 µM
  viability, T/C: 21.7%
Second compound 0.000949 µM, first compound 0.03 µM
  viability, T/C: 18.8%
Second compound 0.000949 µM, first compound 0.0949 µM
  viability, T/C: 15.9%
Second compound 0.000949 µM, first compound 0.3 µM
  viability, T/C: 5.84%
Second compound 0.000949 µM, first compound 0.949 µM
  viability, T/C: 1.81%
Second compound 0.000949 µM, first compound 3 µM
  viability, T/C: 0.31%
Second compound 0.003 µM, first compound 0.00949 µM
  viability, T/C: 0.52%
Second compound 0.003 µM, first compound 0.03 µM
  viability, T/C: 0.55%
Second compound 0.003 µM, first compound 0.0949 µM
  viability, T/C: 0.44%
Second compound 0.003 µM, first compound 0.3 µM
  viability, T/C: 0.36%
Second compound 0.003 µM, first compound 0.949 µM
  viability, T/C: 0.97%
Second compound 0.003 µM, first compound 3 µM
  viability, T/C: 1.24%

## CC1COCCN1c1cc(-c2ccnn2C)c2ccnc(-c3ccn[nH]3)c2n1 (stereo not given) + CC[C@@]1(O)C(=O)OCc2c1cc1n(c2=O)Cc2cc3c(CN(C)C)c(O)ccc3nc2-1
Second compound 0.003 µM
  IC50: 317 nM
Second compound 0.00949 µM
  IC50: 141 nM
Second compound 0.03 µM
  IC50: < 31.6 nM
Second compound 0.0949 µM
  IC50: < 31.6 nM
Second compound 0.3 µM
  IC50: < 31.6 nM
Second compound 0.003 µM, first compound 0.0316 µM
  viability, T/C: 85.3%
Second compound 0.003 µM, first compound 0.1 µM
  viability, T/C: 66.5%
Second compound 0.003 µM, first compound 0.316 µM
  viability, T/C: 50.2%
Second compound 0.003 µM, first compound 1 µM
  viability, T/C: 39%
Second compound 0.003 µM, first compound 3.16 µM
  viability, T/C: 33.7%
Second compound 0.003 µM, first compound 10 µM
  viability, T/C: 30.8%
Second compound 0.00949 µM, first compound 0.0316 µM
  viability, T/C: 68.9%
Second compound 0.00949 µM, first compound 0.1 µM
  viability, T/C: 53.5%
Second compound 0.00949 µM, first compound 0.316 µM
  viability, T/C: 40.9%
Second compound 0.00949 µM, first compound 1 µM
  viability, T/C: 38.1%
Second compound 0.00949 µM, first compound 3.16 µM
  viability, T/C: 31.6%
Second compound 0.00949 µM, first compound 10 µM
  viability, T/C: 29.2%
Second compound 0.03 µM, first compound 0.0316 µM
  viability, T/C: 42%
Second compound 0.03 µM, first compound 0.1 µM
  viability, T/C: 35.3%
Second compound 0.03 µM, first compound 0.316 µM
  viability, T/C: 35.5%
Second compound 0.03 µM, first compound 1 µM
  viability, T/C: 35.1%
Second compound 0.03 µM, first compound 3.16 µM
  viability, T/C: 29.8%
Second compound 0.03 µM, first compound 10 µM
  viability, T/C: 28.4%
Second compound 0.0949 µM, first compound 0.0316 µM
  viability, T/C: 21.6%
Second compound 0.0949 µM, first compound 0.1 µM
  viability, T/C: 20%
Second compound 0.0949 µM, first compound 0.316 µM
  viability, T/C: 20.5%
Second compound 0.0949 µM, first compound 1 µM
  viability, T/C: 26.5%
Second compound 0.0949 µM, first compound 3.16 µM
  viability, T/C: 27.1%
Second compound 0.0949 µM, first compound 10 µM
  viability, T/C: 27%
Second compound 0.3 µM, first compound 0.0316 µM
  viability, T/C: 4.51%
Second compound 0.3 µM, first compound 0.1 µM
  viability, T/C: 5.08%
Second compound 0.3 µM, first compound 0.316 µM
  viability, T/C: 6.11%
Second compound 0.3 µM, first compound 1 µM
  viability, T/C: 10.5%
Second compound 0.3 µM, first compound 3.16 µM
  viability, T/C: 16.3%
Second compound 0.3 µM, first compound 10 µM
  viability, T/C: 15.6%

Reference: PubChem BioAssay AID1845199 (Molecular Pharmacology Branch, DTP, NCI, 2023)
